# Read-outs that look alike come from different tables or passages of the source.
# System: cancer cell lines from the cancer cell line encyclopedia (CCLE)
# Experiment: Cell line profiling (CLiP) proliferation experiment
# Type: cell-based
# Conditions: Homo sapiens; for EC50: read-out: Inflection Point; for IC50: read-out: Crossing Point
# Description: Compound profiling experiment and data analysis was performed as previously described. Data was imported and plotted using the Tibco Spotfire DXP application. Lines were categorized as sensitive, intermediate and refractory as follows: Amax<-40 & Inflection Point <2 ~ Sensitive, Amax>-20 & Inflection Point >10 ~ Refractory, all else were called Intermediate. Cancer Cell line HG-U133 Plus 2 data was processed and normalized as described. […] Five sets of refractory cell lines were generated from the pool of refractory cell lines trying to match the lineage composition of the set of sensitive cell lines. The limma package was used as previously described to perform the statistical comparison.
# [1] = MKN-74, cell line MKN74 (stomach)
# [2] = MM1.S, cell line MM1-S (haematopoietic_and_lymphoid_tissue)
# [3] = MOLM-13, cell line MOLM-13 (haematopoietic_and_lymphoid_tissue)
# [4] = MOLP-8, cell line MOLP-8 (haematopoietic_and_lymphoid_tissue)
# [5] = MOLT-16, cell line MOLT-16 (haematopoietic_and_lymphoid_tissue)
# [6] = MONO-MAC-6, cell line MONO-MAC-6 (haematopoietic_and_lymphoid_tissue)
# [7] = MV4-11, cell line MV-4-11 (haematopoietic_and_lymphoid_tissue)
# [8] = NCI-H82, NCI-H82, lung, small_cell_carcinoma
# [9] = NCI-H441, NCI-H441, lung, adenocarcinoma
# [10] = NCI-H647, NCI-H647, lung, mixed_adenosquamous_carcinoma
# [11] = NCI-H650, NCI-H650, lung, bronchioloalveolar_adenocarcinoma
# [12] = NCI-H716, NCI-H716, large_intestine, adenocarcinoma
# [13] = NCI-H810, NCI-H810, lung, large_cell_carcinoma
# [14] = NCI-H1092, cell line NCI-H1092 (lung)
# [15] = NCI-H1299, cell line NCI-H1299 (lung)
# [16] = NCI-H1563, cell line NCI-H1563 (lung)
# [17] = NCI-H1581, cell line NCI-H1581 (lung)
compound,measurement,setting,value
CC(C)[C@@]12C[C@@H](O)[C@@](C)(O1)[C@@H]1CC[C@@H](C)[C@H]1[C@@H]2OC(=O)/C=C/c1ccccc1 [Englerin B],EC50,"MIA PaCa-2, cell line MIA PaCa-2 (pancreas)",11.3 µM
same,IC50,"MKN-1, cell line MKN1 (stomach)",> 30 µM
same,IC50,"MKN-1, cell line MKN1",> 30 µM
same,IC50,"MKN-7, MKN7 (stomach)",> 30 µM
same,IC50,"MKN-7, cell line MKN7 (stomach)",> 30 µM
same,IC50,"MKN-45, MKN-45 (stomach)",> 30 µM
same,IC50,"MKN-45, cell line MKN-45 (stomach)",> 30 µM
same,IC50,[1],27.5 µM
same,EC50,[1],27.5 µM
same,IC50,[2],> 30 µM
same,EC50,[2],25.6 µM
same,IC50,"MM1.S, cell line MM1-S",> 30 µM
same,EC50,"MOLM-13, MOLM-13 (haematopoietic_and_lymphoid_tissue)",13.1 µM
same,IC50,[3],13.4 µM
same,EC50,[3],13.1 µM
same,IC50,[4],16.6 µM
same,EC50,[4],12.1 µM
same,IC50,"MOLP-8, cell line MOLP-8",16.6 µM
same,IC50,[5],23.3 µM
same,EC50,[5],23.3 µM
same,IC50,[6],18.4 µM
same,EC50,[6],18.4 µM
same,IC50,"MSTO-211H, cell line MSTO-211H (pleura)",27.7 µM
same,IC50,"MV4-11, MV-4-11 cells",11.4 µM
same,EC50,"MV4-11, MV-4-11 cells",11.4 µM
same,IC50,[7],11.4 µM
same,EC50,[7],11.4 µM
same,IC50,"Malme-3M, Malme-3M (skin)",> 30 µM
same,IC50,"Malme-3M, Malme-3M cells",> 30 µM
same,IC50,"Maver1, MAVER-1 (haematopoietic_and_lymphoid_tissue)",13.2 µM
same,IC50,"MeWo, cell line MeWo (skin)",26.2 µM
same,EC50,"MeWo, cell line MeWo (skin)",22.6 µM
same,IC50,"NALM-6, cell line NALM-6 (haematopoietic_and_lymphoid_tissue)",11.8 µM
same,IC50,"NCI-H28, NCI-H28, pleura, NS",11.9 µM
same,EC50,"NCI-H28, NCI-H28, pleura, NS",10.5 µM
same,IC50,[8],19.6 µM
same,EC50,[8],19.6 µM
same,IC50,"NCI-H82, NCI-H82 cells",19.6 µM
same,EC50,"NCI-H82, NCI-H82 cells",19.6 µM
same,IC50,"NCI-H146, NCI-H146 cells",> 30 µM
same,IC50,"NCI-H146, cell line NCI-H146 (lung)",> 30 µM
same,IC50,"NCI-H226, NCI-H226, lung, squamous_cell_carcinoma",> 30 µM
same,IC50,"NCI-H226, cell line NCI-H226",> 30 µM
same,IC50,"NCI-H358, NCI-H358, lung, bronchioloalveolar_adenocarcinoma",22.8 µM
same,IC50,[9],> 30 µM
same,EC50,[9],12.7 µM
same,IC50,"NCI-H441, cell line NCI-H441",> 30 µM
same,IC50,"NCI-H460, NCI-H460, lung, large_cell_carcinoma",> 30 µM
same,IC50,"NCI-H460, cell line NCI-H460",> 30 µM
same,IC50,"NCI-H520, NCI-H520, lung, squamous_cell_carcinoma",> 30 µM
same,IC50,"NCI-H520, NCI-H520 cells",> 30 µM
same,IC50,"NCI-H596, NCI-H596, lung, mixed_adenosquamous_carcinoma",> 30 µM
same,IC50,"NCI-H596, NCI-H596 cells",> 30 µM
same,IC50,[10],15 µM
same,EC50,[10],15 µM
same,IC50,[11],15.8 µM
same,EC50,[11],15.8 µM
same,IC50,"NCI-H650, NCI-H650 cells",15.8 µM
same,EC50,"NCI-H650, NCI-H650 cells",15.8 µM
same,IC50,"NCI-H661, NCI-H661, lung, large_cell_carcinoma",> 30 µM
same,IC50,"NCI-H661, NCI-H661 cells",> 30 µM
same,IC50,[12],29.8 µM
same,EC50,[12],21.4 µM
same,EC50,"NCI-H716, NCI-H716 cells",21.4 µM
same,IC50,"NCI-H727, NCI-H727, lung, NS",> 30 µM
same,IC50,"NCI-H727, cell line NCI-H727",> 30 µM
same,IC50,[13],26.6 µM
same,EC50,[13],21.1 µM
same,IC50,"NCI-H838, NCI-H838, lung, adenocarcinoma",> 30 µM
same,IC50,"NCI-H838, NCI-H838 cells",> 30 µM
same,IC50,"NCI-H1048, cell line NCI-H1048 (lung)",4.81 µM
same,IC50,[14],> 30 µM
same,EC50,[14],3.48 µM
same,IC50,"NCI-H1092, cell line NCI-H1092",> 30 µM
same,IC50,[15],13 µM
same,EC50,[15],11.3 µM
same,IC50,"NCI-H1355, cell line NCI-H1355 (lung)",10.7 µM
same,IC50,"NCI-H1437, NCI-H1437 cells",> 30 µM
same,IC50,"NCI-H1437, cell line NCI-H1437 (lung)",> 30 µM
same,IC50,[16],> 30 µM
same,EC50,[16],9.9 µM
same,IC50,"NCI-H1563, cell line NCI-H1563",> 30 µM
same,IC50,"NCI-H1573, cell line NCI-H1573 (lung)",1.5 µM
same,EC50,"NCI-H1581, NCI-H1581 cells",15.4 µM
same,IC50,[17],14.7 µM
same,EC50,[17],15.4 µM
same,IC50,"NCI-H1623, cell line NCI-H1623 (lung)",> 30 µM
same,IC50,"NCI-H1623, cell line NCI-H1623",> 30 µM
same,IC50,"NCI-H1650, NCI-H1650 (lung)",26.2 µM
same,IC50,"NCI-H1650, cell line NCI-H1650 (lung)",26.2 µM
same,IC50,"NCI-H1651, NCI-H1651 cells",> 30 µM
same,IC50,"NCI-H1651, cell line NCI-H1651 (lung)",> 30 µM
